In PMC9500858 (International Journal of Molecular Sciences, 2022):

Columns and labels:
[1] = Acid hydrolysis (1 M HCl) forced degradation, LC-MS; type: physicochemical; settings: for Recovery / Concentration Found (Mean ± SD): acidic degradation, 50 μg/mL in 1 M HCl, n = 3; for Concentration Found (Mean ± SD): neutralised with 1 M NaOH
Experimental: (§1) The separation was carried out using Kinetex XB-C18 column (150 mm × 2.1 mm × 1.7 μm; Phenomenex, Torrance, CA, USA). The mobile phase consisted of A: 0.1% formic acid in deionized water and B: 0.1% formic acid in acetonitrile (MeCN). The two-step gradient was used from 5% B to 50% B in 13 min and from 50% B to 65% B up to 20 min. The column temperature was maintained at 25 °C with a flow rate equal to 0.3 mL/min. The eluate was introduced directly to the mass spectrometer. The ion trap setting was as follows: capillary voltage 4500 V, endplate offset 500 V, nebulizer pressure 40 psi, drying gas temperature 145 °C and gas flow rate 9 L/min. The instrument used a smart parameter setting (SPS) fixed at 1000 amu. The scan range was from m/z = 70 to m/z = 2200. Compounds were analyzed in […] ion mode.
(§2) Before LC analysis, the ionization of each quantified compound in the positive ion mode was optimized by the direct injection of standard (50 µg/mL in 0.1% HCOOH in H2O; 0.3 mL/min) into the ESI source of the mass spectrometer. The intensity of the most abundant ion for each compound was monitored in order to choose optimal conditions. The quantification of investigated compounds was performed using the dominating ion (for both PK20 and [Ile^9] PK20 the ion at m/z =1357.40 ± 0.3, retention time ca. 11.2 min).
(§3) The calibration curves were plotted as the amount of injected compound (ng) vs. detector response (peak area) using extracted ion chromatograms (EIC) for the characteristic ion for each compound. The linear range for each quantified compound was between 5 and 200 ng per injection. Five amount levels were used for the plotting of curves. Samples at each level were analyzed in triplicate.
(§4) The stability of PK20 and [Ile^9]PK20 was tested under acidic, basic, oxidative, heat, freeze and ultraviolet light conditions. All experiments were conducted in triplicate (n = 3). The comparison of peak areas in degradative and non-degradative conditions for both compounds can be observed in Figure 3 and Figure 4.
(§5) Drug solution (50 μg/mL) was prepared in HCl (1 M) or NaOH (1 M). Aliquots were kept at a temperature of 80 °C (LBK type water bath, SWL Bytom, Poland) for 12 h and 37°C (medical water bath, LW102, Auritronic, Krakow, Poland) for 24 h. At a specific time-point, acidic and basic solutions of both PK20 and [Ile^9]PK20 were neutralized with an equal volume of 1 M NaOH or 1 M HCl, respectively, and diluted with an equal volume of 0.2% formic acid in acetonitrile and analyzed using LC-MS.

[2] = Base hydrolysis (1 M NaOH) forced degradation, LC-MS; type: physicochemical; settings: for Recovery / Concentration Found (Mean ± SD): basic degradation, 50 μg/mL in 1 M NaOH, n = 3; for Concentration Found (Mean ± SD): neutralised with 1 M HCl
Experimental: as §1, §2, §3, §4, §5

[3] = Oxidative degradation (30% H2O2), LC-MS; type: physicochemical; settings: n = 3
Experimental: as §1, §2, §3, §4
PK20 and [Ile^9]PK20 solution (50 μg/mL) was prepared in 30% (v/v) hydrogen peroxide (H2O2). Aliquots were incubated at 37 °C for 24 h and 80 °C for 12 h. After the incubation, each drug solution was diluted with an equal volume of 0.2% formic acid in acetonitrile and analyzed with LC-MS.

[4] = Thermal degradation and freeze-thaw in Mili-Q water, LC-MS; type: physicochemical; settings: 50 μg/mL in Mili-Q water; for Concentration Found (Mean ± SD) / Recovery: n = 3
Experimental: as §1, §2, §3, §4
Solutions (50 μg/mL) of both hybrid peptides were prepared in Mili-Q water, and aliquots were kept at room temperature 22 °C, 37 °C and −80 °C for 24 h and at 80 °C for 12 h. One aliquot was also subjected to two freeze–thaw cycles with the sample first frozen at −80°C for 24 h, defrosted under running tap water at room temperature for 2 h and second frozen at −20°C for 24 h and defrosted under running tap water at room temperature for 2 h. Then, the solutions of PK20 and [Ile^9]PK20 were diluted with an equal volume of 0.2% formic acid in acetonitrile and analyzed with LC-MS.

[5] = Photolytic (UV) degradation in Mili-Q water, LC-MS; type: physicochemical; settings: 365 nm UV light, 7 h, 50 μg/mL in Mili-Q water, clear plastic vials, n = 3
Experimental: as §1, §2, §3, §4
PK20 and [Ile^9]PK20 solution (50 μg/mL) was prepared in Mili-Q water, and aliquots were kept in clear plastic vials exposed to UV light (366 nm, Camag, UV Lamp 4, Camag, Switzerland) for 7 h. After the incubation, the drug solution was diluted with an equal volume of 0.2% formic acid in acetonitrile and analyzed with LC-MS.

[6] = biological target: mu opioid receptor; settings: intrinsic activity of the receptor; read-out: EC50 (potency) at mu opioid receptor; cited from earlier work
Source text: Since hybrid compounds have gained attention due to their potent multifunctional behavior with a more favorable profile in terms of possible side effects, much work devoted to such compounds can be found. PK20 and [Ile^9]PK20, which are hybrid structures encompassing both opioid and neurotensin pharmacophores, although modified, were designed and synthesized to reduce pain.

[7] = 50 μg/mL in 30% (v/v) H2O2, 37 °C, 24 h
[8] = 50 μg/mL in 30% (v/v) H2O2, 80 °C, 12 h
[9] = thermal degradation, 37 °C, 24 h
[10] = thermal degradation, 80 °C, 12 h
[11] = thermal degradation, room temperature (22 °C), 24 h
[12] = thermal degradation, −80 °C, 24 h
[13] = thermal, temperatures ranging from 22 °C through 37 °C to +80 °C
[14] = two freeze–thaw cycles (24 h −80 °C, 2 h 22 °C, 24 h −20 °C)

Substance: HELM PEPTIDE1{[Cc1cc(O)cc(C)c1C[C@H](N)C(=O)[*:2]].[dK].F.F.K.K.P.F.[CC(C)(C)[C@H](N[*:1])C(=O)[*:2]].L}$$$$V2.0 (N-terminus assumed; SMILES Cc1cc(O)cc(C)c1C[C@H](N)C(=O)N[C@H](CCCCN)C(=O)N[C@@H](Cc1ccccc1)C(=O)N[C@@H](Cc1ccccc1)C(=O)N[C@@H](CCCCN)C(=O)N[C@@H](CCCCN)C(=O)N1CCC[C@H]1C(=O)N[C@@H](Cc1ccccc1)C(=O)N[C@H](C(=O)N[C@@H](CC(C)C)C(=O)O)C(C)(C)C) [PK20, opioid–neurotensin hybrid peptide]
- Recovery ([1]; 37 °C, 24 h, LC-MS): 78.19%
- Concentration Found (Mean ± SD) ([1]; 37 °C, 24 h, LC-MS (EIC m/z 1357.40)): 39090 ± 6330 ng/mL
- Recovery ([1]; 80 °C, 12 h, LC-MS): 54.43%
- Concentration Found (Mean ± SD) ([1]; 80 °C, 12 h, LC-MS): 27220 ± 2750 ng/mL
- half-life in 1M HCl ([1]; calculated half-life, acidic conditions, 1 M HCl, 50 μg/mL, temperature not given for the half-life, LC-MS): 204.4 h
- Recovery ([2]; 37 °C, 24 h): 30.32%
- Concentration Found (Mean ± SD) ([2]; 37 °C, 24 h): 15160 ± 340 ng/mL
- Recovery ([2]; 80 °C, 12 h): 11.44%
- Concentration Found (Mean ± SD) ([2]; 80 °C, 12 h): 5710 ± 1670 ng/mL
- half-life (t1/2) in 1M NaOH ([2]; calculated half-life, alkaline conditions, 1 M NaOH, 50 μg/mL, temperature not given for the half-life): 11.36 h
- Concentration Found (Mean ± SD) [3, 7]: 30520 ± 490 ng/mL
- Recovery [3, 7]: 61.04%
- Concentration Found (Mean ± SD) [3, 8]: 9800 ± 200 ng/mL
- Recovery [3, 8]: 19.60%
- Concentration Found (Mean ± SD) [4, 9]: 49980 ± 350 ng/mL
- Recovery [4, 9]: 99.97%
- Concentration Found (Mean ± SD) [4, 10]: 48670 ± 2740 ng/mL
- Recovery [4, 10]: 97.34%
- Concentration Found (Mean ± SD) [4, 11]: 51360 ± 1640 ng/mL
- Recovery [4, 11]: 102.72%
- Concentration Found (Mean ± SD) [4, 12]: 51900 ± 200 ng/mL
- Recovery [4, 12]: 103.80%
- remaining concentration of the peptide [4, 13]: approximately 50 μg/mL
- remaining peptide as percentage [4, 13]: ~100%
- Concentration Found (Mean ± SD) [4, 14]: 43250 ± 9420 ng/mL
- Recovery [4, 14]: 86.50%
- Concentration Found (Mean ± SD) ([5]; mean ± SD): 18720 ± 940 ng/mL
- Recovery [5]: 37.44%
- EC50 [6]: 79 nM
